“Also recorded” adds a separate entry of the source. Positions of bridges follow the written chain, without caps; N, C: chain ends. No end group written: not given here.
What was measured:
[1] = system: regulated intramembrane proteolysis (RIP) of β1 in 1610β1 cells; test: Western blot of full-length β1 and C-terminal fragment (regulated intramembrane proteolysis) in 1610β1 cells; type: cell-based, Chinese hamster; details: for CTF levels on immunoblots, peptide alone: without DAPT
Procedure: (FIG. 8A) Representative Western blot showing 0.1% DMSO, 50 μM βadp1, 1 μM DAPT, and 50 μM+1 μM DAPT treatments at 6 hours, 24 hours, and 48 hours of treatment. Cells were plated and treated simultaneously, and then lysate was collected at the indicated 6, 24, or 48 hours. Detection of the β1 subunit was done using a c-terminal antibody “Na Channel β1 Subunit (D4Z2N) Rabbit mAb #13950” (Cell Signaling Technologies). This allowed for labeling of both the full length β1 protein (37 kD) and the C-terminal fragment (CTF) (19 kD). […] (FIG. 8B) Quantification of the 37 kD full-length β1 protein at 6, 24, and 48 hours. All results are normalized to DMSO treatment at each timepoint and then shown as a ratio of DAPT+βadp1/DAPT to account for the DAPT treatment in each. […] (FIG. 8C) Quantification of the 19 kD CTF of β1. All results are normalized to DMSO treatment at each timepoint and then shown as a ratio of DAPT+βadp1/DAPT to account for the DAPT treatment in each.
β1 abundance was further examined using Western blotting (WB) at time points of 6, 24, and 48 hours after initial βadp1 treatment. Cells were plated in 35 mm cell culture dishes and treated with 50 μM βadp1 or βS2L solubilized in a final concentration of 0.1% DMSO at the time of plating. The control was DMSO vehicle. To determine whether βadp1 affects the RIP of β1, cells were also treated with 1 μM DAPT, an inhibitor of γ-secretase, to cause an accumulation of the intermediate substrate in the RIP of β1, the CTF. Whole cell lysate was collected and run on stain free gels and transferred to a Polyvinylidene difluoride (PVDF) membrane. Membranes were labeled with an antibody against the c-terminal domain of β1 (Cell Signaling Technologies).
β1 has been reported to undergo a process of […] intramembrane proteolysis (RIP) by BACE1 and γ-secretase, ultimately resulting in the production of a soluble intracellular domain (ICD) that is translocated to the nucleus, with correlated effects on gene transcription. Applicant sought to determine if the β1 targeting peptides affect the RIP process in 1610β1 cells and whether any effect relates to changes in the distribution and abundance of β1 immunolabeling we observed in this model. First, to confirm that β1 underwent RIP in 1610β1 cells, Applicant treated cells with the y-secretase inhibitor DAPT. In the presence of DAPT, it was noted that the 19 kD Carboxyl-Terminal Fragment (CTF) accumulated in Western blots from cells sampled at 6, 24 and 48 hours following initiation of treatment, similar to results published by others in CHL cells and MDA-MB-231 breast cancer cells (FIG. 12A). Without DAPT treatment the 19 kD CTF was virtually non-detectable at any of the time points sampled (FIG. 12A). Next, Applicant co-treated cells with DAPT in the presence of βadp1 or βS2L. […]

[2] = system: 1610β1 cells (β1/SCN1B-mediated cell adhesion); test: Electric cell-substrate impedance sensing (ECIS) of cell adhesion in 1610β1 monolayers; type: cell-based, Chinese hamster; details: for resistance compared to vehicle over the entire time course / resistance compared to DMSO vehicle at 5 hours / resistance compared to DMSO vehicle at (up to) 20 hours / resistance compared to DMSO vehicle at 40 hours: 10 μM; for resistance compared to vehicle over the entire time course: 40 hour time course; for resistance compared to DMSO vehicle at 5 hours / resistance compared to DMSO vehicle at (up to) 20 hours / resistance compared to DMSO vehicle at 40 hours: single treatment at plating; for acute de-adhesion effects: dimerized peptides, ECIS time course
Excerpt: FIGS. 3A-3E show βadp1 binding and identification of βadp1 derived smaller peptide fragments with similar function. […] Positive and negatively charged moieties on the adhesion surface of the β1 Ig loop are shown in red and blue (as represented in greyscale), respectively. […] Peptides towards the carboxyl terminus of βadp1, especially those incorporating hydrophobic leucine residues, show the most adhesion reducing activity. Based on the ECIS time course data, and predictions from molecular modeling of likely binding in the hydrophobic pocket β1/SCN1B Ig domain binding surface, the sequence LQLEED (SEQ ID NO: 4) was selected as a short peptide candidate drug molecule.
In this Example to evaluate the long term effects (effects after more than 2 hours post treatment) of βadp1 and derivatives on β1 cell adhesion, electric cell-substrate impedance sensing (ECIS) was employed. ECIS measures the impedance of electric current. 4000 Hz is the recommended frequency for measuring changes in impedance between cells, assaying intercellular adhesion levels, as mediated by β1. […] To assist in focusing on the active sequence of βadp1 used to create the other peptides in this disclosure, ECIS experiments were completed using multiple small sequences as shown in FIGS. 3A-3E. From this, and in combination with the in silico experiments, it was determined that LQLEED (SEQ ID NO: 4) was the optimal sequence. […] For the other dimerized peptides, ERF residues were included on the c-terminal end of the LQLEED (SEQ ID NO: 4) peptide because residue R85 in SCN1B is associated with atrial fibrillation. Cells were plated in 8 well plates lined with 40 electrodes and treated with a 10 μM concentration of βadp1 in a final concentration of 0.1% DMSO at the time of plating or DMSO vehicle.
βadp1 is a peptide mimetic of a 20 amino acid (aa) sequence from the immunoglobulin (Ig) domain of the voltage gated sodium channel (VGSC) β1 subunit involved in adhesive interactions. […] Applicant synthesized a dimerized variant of the 20 aa βadp1 (FIG. 1) and tested it in monolayers of 1610 Chinese Hamster Lung cells stably expressing the β1 subunit (1610ß1) using electric cell substrate impedance sensing (ECIS) to determine whether it acted as an agonist that promoted β1-mediated adhesion.

[3] = system: β1 protein (SCN1B) in 1610β1 cells; test: Confocal immunofluorescence of β1 abundance and Biotin-βadp1 uptake in 1610β1 cells; type: cell-based, Chinese hamster; details: for upregulation of β1 protein 48 hours after treatment: 50 μM; for upregulation of β1 protein 48 hours after treatment / β1 abundance (immunolabeling) at 48 hours compared to DMSO treated cells: FIG. 7; for β1 abundance (immunolabeling) at 48 hours compared to DMSO treated cells: 10 μM; for upregulation of β1 protein 48 hours after treatment / β1 abundance (immunolabeling) at 48 hours compared to DMSO treated cells / β1 abundance at cell-cell borders / in the membrane: 48 hours; for β1 abundance at cell-cell borders / in the membrane: FIG. 7D-7E
Procedure: Cells were then allowed to grow for 1-48 hours, after which they were fixed with 4% paraformaldehyde. […] White scale bar: 10 μm
FIGS. 7A-7D show 1610β1 cells treated for 48 hours with 10 μM concentrations of DMSO or βadp1 derived peptides (FIG. 7A) 0.1% DMSO, (FIG. 7B) βadp1, (FIG. 7C) LQLEED (SEQ ID NO: 4), (FIG. 7D) βS2L.
Next, the abundance of β1 protein was evaluated using confocal microscopy immunofluorescence (IF). 1610β1 cells were plated in 12 well plates on lysine coated coverslips and allowed to grow for 48 hours. Cells were then treated with a 50 μM concentration of βadp1, βS2L, βS2C, or LQLEED (SEQ ID NO: 4) or βadp1 conjugated with a Biotin molecule (B-βadp1) solubilized in a final concentration of 0.1% dimethyl sulfoxide (DMSO). Controls for the experiment were cells treated with only 0.1% DMSO vehicle. Cells were then fixed in 4% paraformaldehyde and stained with an antibody against the extracellular domain of β1 (Virginia Tech) and a streptavidin-Alexa647 (Invitrogen) conjugate to stain B-βadp1.
Applicant undertook immunolabeling studies to further probe the effect of the mimetic peptides on 1610β1 cells over time courses of up to 2 days. […] Prompted by this observation we examined what effects of 10 μM concentrations of LQLEED (SEQ ID NO: 4) and βS2L on β1 immunolabeling at or 48 hours over the same time course.

[4] = system: Isolated guinea pig hearts; details: cited from earlier work
[5] = system: β1-mediated adhesion and gap junction-associated VGSC activity in cultured cells; details: 1 to 2 hours; cited from earlier work
[6] = system: parental cell line of 1610 cells expressing negligible levels of β1; test: ECIS in parental 1610 cells; type: cell-based, Chinese hamster
[7] = system: 1610β1 cells (β1/SCN1B-mediated cell adhesion); test: Electric cell-substrate impedance sensing (ECIS) of cell adhesion in 1610β1 monolayers; type: cell-based, Chinese hamster
[8] = isolated guinea pig hearts treated acutely

| Compound | resistance compared to vehicle over the entire time course [2] | resistance compared to DMSO vehicle at 5 hours ([2]; 5 hours) | resistance compared to DMSO vehicle at (up to) 20 hours [2] | acute de-adhesion effects [2] | upregulation of β1 protein 48 hours after treatment [3] | resistance compared to DMSO vehicle at 40 hours [2] | CTF levels on immunoblots, peptide alone [1] | β1 abundance (immunolabeling) at 48 hours compared to DMSO treated cells [3] | β1 abundance at cell-cell borders / in the membrane [3] | further results |
| --- | --- | --- | --- | --- | --- | --- | --- | --- | --- | --- |
| C[C@H](NC(=O)Cc1cc(F)cc(F)c1)C(=O)N[C@H](C(=O)OC(C)(C)C)c1ccccc1 [DAPT, reference compound] |  |  |  |  |  |  |  |  |  | accumulation of the 19 kD C-terminal fragment (CTF) of β1 with DAPT ([1]; 1 μM DAPT, 6, 24 and 48 hours, versus no DAPT): accumulation of the 19KD CTF; also recorded: accumulated |
| CLQLEEDERF-G-LQLEEDERFC (CLQLEEDERFGLQLEEDERFC; disulfide 1-21 (inferred)) [βS2C, dimeric peptide with NT and CT cysteines, cyclizable via disulfide bonding] | increased resistance throughout the time course | increase resistance; also recorded: significantly elevated over vehicle control | increased resistance | no acute de-adhesion effects detectable | upregulation of β1 protein |  |  |  |  |  |
| FVKILRYENEVLQLEEDERF [βadp1] |  | decrease resistance | decrease resistance; also recorded: significantly decreased resistance; also recorded: significant decreases in resistance |  |  | no significant difference; also recorded: effects of βadp1 had reversed; also recorded: no longer significantly below those of controls | Neither βadp1 or βS2L alone appeared to have consistent effects | increase in β1 abundance |  | perinexal adhesion at early time-points ([4]; <2 hours): perinexal de-adhesion; conduction velocity [4, 8]: decreased conduction velocity; perinexus width [4, 8]: widened perinexus; gap junction-associated VGSC activity [5]: inhibits; β1-mediated adhesion [5]: inhibits β1-mediated adhesion; ECIS-assayed adhesion ([2]; 10 and 100 μM treatments): significant decreases in ECIS-assayed adhesion; normalized resistance of monolayers (marker of cell adhesion mediated by β1/SCN1B) relative to control ([2]; 1610 cells exogenously expressing β1/SCN1B, over 20 hours, FIG. 3D): significantly reduces normalized resistance; regulated intramembrane proteolysis (RIP) of β1 ([1]; inferred from CTF accumulation with DAPT): increasing the amount of RIP that β1 undergoes; also recorded: increases the RIP of β1; β1 levels at 48 hours ([3]; cells monitored up to 48 hours from the initial treatment): notably increased |
| FVKILRYENEVLQLEEDERGFVKILRYENEVLQLEEDER [Db1-βadp1, dimerized version of βadp1 with a glycine linker] |  |  |  |  |  |  |  |  |  | intercellular resistance in parental 1610 cells [6]: did not result in increased intercellular resistance; concentration dependence of the increase in resistance ([7]; 100 μM versus 50 μM, 24 hours): concentration dependent effect; also recorded: higher for 100 μM Db1-βadp1 versus the 50 μM treatment; resistance compared to DMSO/vehicle control ([7]; Db1-βadp1 100 μM and 50 μM, over 24 hours of treatment, n=2, FIG. 4): increased resistance |
| LQLEED [short monomeric peptide towards the carboxyl terminus of βadp1] |  | decrease resistance; also recorded: decreased levels of intercellular resistance | decreased resistance; also recorded: significant decreases in resistance |  |  |  |  | increase in β1 abundance; also recorded: appeared to increase | occasional evidence of increased intensity of immunolabeling signal at cell borders |  |
| LQLEEDERF-G-LQLEEDERF (LQLEEDERFGLQLEEDERF) [βS2L] | increased resistance throughout the time course; also recorded: significantly increasing resistance | increase resistance; also recorded: significantly elevated over vehicle control | increase resistance | no acute de-adhesion effects detectable | upregulation of β1 protein | continues to increase resistance | Neither βadp1 or βS2L alone appeared to have consistent effects | increase in β1 abundance; also recorded: cell-wide increases in β1 immunolabeling | increase the 1 abundance at cell-cell borders; also recorded: increase the β1 present in the membrane; also recorded: distinctive increase in signal at cell borders | resistance relative to that after the LQLEED inhibitory monomer ([2]; 5 hours): 5-6 fold |

Source: patent US20250304649A1, “SCN1B MIMETIC PEPTIDES AND USES THEREOF” (Virginia Tech Intellectual Properties, Inc., priority 2022, published 2025)
